What was measured:
galium = assay: Test A postemergence; type: in vivo, Galium aparine; settings: postemergence, 10 days
How it was run: (§1)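 Seeds in loam–sand blend received a directed preemergence soil spray of compound in non-phytotoxic solvent with surfactant; postemergence plants (2–10 cm, one- to two-leaf stage) were sprayed with the same formulation. After 10 days in greenhouse, injury was rated visually versus untreated controls, 0 (no effect) to 100 (complete control).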

barnyardgrass [1] = assay: Test A preemergence; type: in vivo, Echinochloa crusgalli; settings: visual injury after 10 days, 0 to 100 scale, 0 is no effect, 100 is complete control
How it was run: as §1

ragweed [2] = assay: Test A postemergence; type: in vivo, Ambrosia artemisiifolia; settings: postemergence, 10 days
How it was run: as §1

kochia [3] = assay: Test A postemergence; type: in vivo, Bassia scoparia; settings: postemergence, 10 days
How it was run: as §1

oat, wild [4] = assay: Test A preemergence; type: in vivo, Avena fatua; settings: 0 to 100 scale
How it was run: as §1

barnyardgrass [5] = assay: Test A postemergence; type: in vivo, Echinochloa crusgalli; settings: postemergence, 10 days
How it was run: as §1

pigweed, palmer [6] = assay: Test A preemergence; type: in vivo, Amaranthus palmeri; settings: 0 to 100 scale
How it was run: as §1

barnyardgrass [7] = assay: Test B flooded paddy test; type: in vivo, Echinochloa crus-galli; settings: 250 g ai/ha, Flood, 13 days, 0 to 100 scale (0 no effect, 100 complete control)
How it was run: (§2)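 Visual scores from 0 (no effect) to 100 (complete kill) were assigned 13 days after treatment by comparison with controls. Seedlings had been treated at two leaves by adding compound to floodwater standing 3 cm deep, kept at that level in the greenhouse.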

soybean [8] = assay: Test A preemergence; type: in vivo, Glycine max; settings: 0 to 100 scale
How it was run: as §1

oat, wild [9] = assay: Test A postemergence; type: in vivo, Avena fatua; settings: postemergence, 10 days
How it was run: as §1

corn [10] = assay: Test A preemergence; type: in vivo, Zea mays; settings: 0 to 100 scale
How it was run: as §1

wheat [11] = assay: Test A preemergence; type: in vivo, Triticum aestivum; settings: 0 to 100 scale
How it was run: as §1

kochia [12] = assay: Test A preemergence; type: in vivo, Bassia scoparia; settings: 0 to 100 scale
How it was run: as §1

ryegrass, Italian [13] = assay: Test A preemergence; type: in vivo, Lolium multiflorum; settings: 0 to 100 scale
How it was run: as §1

ducksalad = assay: Test B flooded paddy test; type: in vivo, Heteranthera limosa; settings: 250 g ai/ha, Flood, 13 days, 0 to 100 scale (0 no effect, 100 complete control)
How it was run: as §2

horseweed = assay: Test A postemergence; type: in vivo, Erigeron canadensis; settings: postemergence, 10 days
How it was run: as §1

wheat [14] = assay: Test A postemergence; type: in vivo, Triticum aestivum; settings: postemergence, 10 days
How it was run: as §1

soybean [15] = assay: Test A postemergence; type: in vivo, Glycine max; settings: postemergence, 10 days
How it was run: as §1

ragweed [16] = assay: Test A preemergence; type: in vivo, Ambrosia artemisiifolia; settings: 0 to 100 scale
How it was run: as §1

rice = assay: Test B flooded paddy test; type: in vivo, Oryza sativa; settings: 250 g ai/ha, Flood, 13 days, 0 to 100 scale (0 no effect, 100 complete control)
How it was run: as §2

corn [17] = assay: Test A postemergence; type: in vivo, Zea mays; settings: postemergence, 10 days
How it was run: as §1

sedge, umbrella = assay: Test B flooded paddy test; type: in vivo, Cyperus difformis; settings: 250 g ai/ha, Flood, 13 days, 0 to 100 scale (0 no effect, 100 complete control)
How it was run: as §2

pigweed, palmer [18] = assay: Test A postemergence; type: in vivo, Amaranthus palmeri; settings: postemergence, 10 days
How it was run: as §1

foxtail, giant [19] = assay: Test A postemergence; type: in vivo, Setaria faberi; settings: postemergence, 10 days
How it was run: as §1

blackgrass [20] = assay: Test A postemergence; type: in vivo, Alopecurus myosuroides; settings: postemergence, 10 days
How it was run: as §1

ryegrass, Italian [21] = assay: Test A postemergence; type: in vivo, Lolium multiflorum; settings: postemergence, 10 days
How it was run: as §1

blackgrass [22] = assay: Test A preemergence; type: in vivo, Alopecurus myosuroides; settings: 0 to 100 scale
How it was run: as §1

foxtail, giant [23] = assay: Test A preemergence; type: in vivo, Setaria faberi; settings: 0 to 100 scale
How it was run: as §1

[24] = 125 g ai/ha, 0 to 100 scale, 0 no effect, 100 complete control
[25] = 500 g ai/ha, visual injury, 0 to 100 scale (0 no effect, 100 complete control)
[26] = 500 g ai/ha, visual injury after 10 days, 0 is no effect, 100 is complete control

CC(C)c1ncn(-c2ccc(OCC(F)(F)F)c(C(=O)N3C[C@H](C)Oc4c(Cl)cccc43)c2)n1 [Compound 141]
60: Plant response rating, Ragweed (ragweed [2]; [25]) | Plant response rating, Oat, Wild (oat, wild [4]; 125 g ai/ha) | Foxtail, Giant plant response rating (foxtail, giant [19]; [24])
80: Galium plant response rating (galium; [24]) | Kochia plant response rating (kochia [3]; [24]) | Plant response rating, Oat, Wild (oat, wild [4]; [26]) | Plant response rating, Soybean (soybean [8]; 125 g ai/ha) | Plant response rating, Soybean (soybean [8]; [26]) | Plant response rating, Blackgrass (blackgrass [20]; [25])
100: Plant response rating, Galium (galium; [25]) | Plant response rating, Pigweed, Palmer (pigweed, palmer [6]; 125 g ai/ha) | Plant response rating, Pigweed, Palmer (pigweed, palmer [6]; [26]) | Plant response rating, Ryegrass, Italian (ryegrass, Italian [13]; [26]) | Soybean plant response rating (soybean [15]; [24]) | Plant response rating, Soybean (soybean [15]; [25]) | Plant response rating, Pigweed, Palmer (pigweed, palmer [18]; [25]) | Plant response rating, Foxtail, Giant (foxtail, giant [19]; [25]) | Plant response rating, Foxtail, Giant (foxtail, giant [23]; [26])
95: Plant response rating, Sedge, Umbrella (sedge, umbrella)
10: Oat, Wild plant response rating (oat, wild [9]; [24]) | Plant response rating, Corn (corn [10]; 125 g ai/ha) | Plant response rating, Corn (corn [10]; [26]) | Wheat plant response rating (wheat [14]; [24]) | Plant response rating, Rice (rice)
25: Plant response rating, Barnyardgrass (barnyardgrass [7])
70: Plant response rating, Barnyardgrass (barnyardgrass [1]; 125 g ai/ha) | Plant response rating, Barnyardgrass (barnyardgrass [5]; [25]) | Pigweed, Palmer plant response rating (pigweed, palmer [18]; [24]) | Plant response rating, Blackgrass (blackgrass [22]; [26])
20: Plant response rating, Oat, Wild (oat, wild [9]; [25]) | Plant response rating, Wheat (wheat [11]; 125 g ai/ha) | Plant response rating, Wheat (wheat [14]; [25]) | Plant response rating, Blackgrass (blackgrass [22]; 125 g ai/ha)
90: Plant response rating, Barnyardgrass (barnyardgrass [1]; 500 g ai/ha) | Plant response rating, Kochia (kochia [3]; [25]) | Plant response rating, Ryegrass, Italian (ryegrass, Italian [13]; 125 g ai/ha) | Corn plant response rating (corn [17]; [24]) | Plant response rating, Corn (corn [17]; [25]) | Plant response rating, Ryegrass, Italian (ryegrass, Italian [21]; [25]) | Plant response rating, Foxtail, Giant (foxtail, giant [23]; 125 g ai/ha)
30: Ragweed plant response rating (ragweed [2]; [24]) | Barnyardgrass plant response rating (barnyardgrass [5]; [24]) | Plant response rating, Wheat (wheat [11]; [26]) | Plant response rating, Ducksalad (ducksalad) | Blackgrass plant response rating (blackgrass [20]; [24]) | Ryegrass, Italian plant response rating (ryegrass, Italian [21]; [24])
50: Plant response rating, Kochia (kochia [12]; [26]) | Plant response rating, Ragweed (ragweed [16]; [26])
0: Plant response rating, Kochia (kochia [12]; 125 g ai/ha) | Horseweed plant response rating (horseweed; [24]) | Plant response rating, Horseweed (horseweed; [25]) | Plant response rating, Ragweed (ragweed [16]; 125 g ai/ha)
